Common to all, as to assay type: cell-based, human
The subject of one experiment is Ii-fusion proteins. The experiment is described as follows: Endosomal/lysosomal targeting of the fusion proteins (chloroquin, Western blot with mAb PIN.1). To be noted: transfectants incubated 4 h with increasing amounts of chloroquin (10-100 μM). As for the experimental part:
Fusion proteins were detected by Western blot analysis using the mAb PIN.1 (Stressgen, Biomol, Hamburg, Germany) which binds to amino acid residues 12-28 of Ii. Briefly, cells were lysed as described (Hsieh, C. S., deRoos, P., Honey, K., Beers, C. & Rudensky, A. Y. (2002) J. Immunol. 168, 2618-2625), lysates were boiled in Laemmli loading buffer, separated on a 12% SDS-PAGE and transferred onto nitrocellulose membranes. After a saturation step with BSA, membranes were incubated for 1 h at room temperature with the mAb PIN.1 (1 μg/ml). Proteins were visualised using a peroxidase-coupled sheep anti-mouse IgG (Amersham Pharmacia, Freiburg, Germany). […] Cells were then lysed and proteins were detected by Western blot as described above.
It has already been described that the N-terminus of Ii is sufficient to target proteins into the MHC class II pathway (Sanderson, S., Frauwirth, K. & Shastri, N. (1995) Proc. Natl. Acad. Sci. U.S. A 92, 7217-7221, Wang, R. F., Wang, X., Atwood, A. C., Topalian, S. L. & Rosenberg, S. A. (1999) Science 284, 1351-1354, Malcherek, G., Wirblich, C., Willcox, N., Rammensee, H. G., Trowsdale, J. & Melms, A. (1998) Eur. J. Immunol. 28, 1524-1533). […] Cells were then lysed and fusion proteins were detected by Western blot.
(In general: A western blot detects proteins with antibodies after separation by electrophoresis.)

The next experiment deals with T-helper cell line. Kind of experiment: T-helper cell proliferation by thymidine incorporation (stimulation index). Particulars: T-helper cell line with irradiated autologous PBMC; 10 μM peptide or 3 μg/ml PHA; thymidine incorporation at 72 hours. As for the experimental part: 3×10^5 matured DC were loaded for two hours with 10 μM of peptide […] (SEQ ID NO: 1) in a 24-well plate and extensively washed. Then 4×10^6 fresh autologous PBMC were added onto DC in the presence of 10 ng/ml IL-12p70 in order to favour Th-1 development. PBMC were weekly restimulated with peptide-loaded irradiated autologous PBMC in the presence of 10 U/ml IL-2 and 5 ng/ml IL-7. After 3 and 5 restimulations, T cells were pooled and tested against autologous PBMC in the presence of peptide. […]
T-helper cell activation was tested by cell proliferation as estimated by thymidine incorporation as well as cytokine secretion. […] After 54 hours, 50 μl of tritiated thymidine-containing medium (0.074 MBq/well, Hartmann Analytic, Braunschweig, Germany) was added and thymidine incorporation measured at 72 hours using a scintillation counter (Microbeta, Wallac, Freiburg, Germany). Cell proliferation is expressed as a stimulation index (S.I.), which corresponds to the ratio: (mean cpm of stimulated T cells)/(mean cpm of unstimulated T cells). IL-2 secretion was measured using the IL-2 dependent CTLL-2 cell line. […] Then, thymidine-containing-medium (0.055 MBq/well) was added for 7-8 additional hours and thymidine incorporation was measured as described above. Results are also expressed as a S.I.
A general note: Uptake of a labelled nucleoside into DNA is a usual measure of proliferation.

Another experiment deals with IL-2. Kind of experiment: IL-2 secretion measured with the IL-2 dependent CTLL-2 cell line. To be noted: T-helper cell line with autologous PBMC; 10 μM peptide or 3 μg/ml PHA; 24 hours supernatant. As for the experimental part:
(§1) T-helper cell activation was tested by cell proliferation as estimated by thymidine incorporation as well as cytokine secretion. Briefly, 2×10^5 cells were incubated in triplicates in a 96-well plate with 2×10^5 irradiated autologous PBMC in the presence or absence of 10 μM peptide or 3 μg/ml PHA. After 24 hours, two portions of 50 μl supernatant were harvested and frozen and 50 μl fresh medium was added to the cells. After 54 hours, 50 μl of tritiated thymidine-containing medium (0.074 MBq/well, Hartmann Analytic, Braunschweig, Germany) was added and thymidine incorporation measured at 72 hours using a scintillation counter (Microbeta, Wallac, Freiburg, Germany). Cell proliferation is expressed as a stimulation index (S.I.), which corresponds to the ratio: (mean cpm of stimulated T cells)/(mean cpm of unstimulated T cells). IL-2 secretion was measured using the IL-2 dependent CTLL-2 cell line. Briefly, 10^4 cells were incubated in the presence of supernatants for 20-24 hours. Then, thymidine-containing-medium (0.055 MBq/well) was added for 7-8 additional hours and thymidine incorporation was measured as described above. Results are also expressed as a S.I.

The next experiment concerns IFN-γ. The experiment is described as follows: IFN-γ secretion by sandwich ELISA. Particulars: peptide-induced T-cell stimulation, 10 μM peptide; 24 hours supernatant. On the procedure: as §1, with “cell line. […] Then, thymidine-containing-medium” for “cell line. Briefly, 10^4 cells were incubated in the presence of supernatants for 20-24 hours. Then, thymidine-containing-medium”, “a S.I. IFN-γ, IL-4 and IL-6 secretion was measured by sandwich ELISA using antibody pairs and peroxidase-conjugated streptavidin from PharMingen and according to Manufacturer's recommendations. […] OD450 was then measured and results expressed in pg/ml according to the standards.” for “a S.I.”
(In general: An ELISA detects its analyte on a solid surface through an enzyme-linked reagent.)

Another experiment relates to IL-4. The experiment is described as follows: IL-4 secretion by sandwich ELISA. Particulars: T-helper cell line; 10 μM peptide or 3 μg/ml PHA. On the procedure: as §1, with “cell line. […] Then, thymidine-containing-medium” for “cell line. Briefly, 10^4 cells were incubated in the presence of supernatants for 20-24 hours. Then, thymidine-containing-medium”, “a S.I. IFN-γ, IL-4 and IL-6 secretion was measured by sandwich ELISA using antibody pairs and peroxidase-conjugated streptavidin from PharMingen and according to Manufacturer's recommendations. […] OD450 was then measured and results expressed in pg/ml according to the standards.” for “a S.I.”

For another experiment, the system named is IL-6. Kind of experiment: IL-6 secretion by sandwich ELISA. Particulars: T-helper cell line; 10 μM peptide or 3 μg/ml PHA. On the procedure: as §1, with “cell line. […] Then, thymidine-containing-medium” for “cell line. Briefly, 10^4 cells were incubated in the presence of supernatants for 20-24 hours. Then, thymidine-containing-medium”, “a S.I. IFN-γ, IL-4 and IL-6 secretion was measured by sandwich ELISA using antibody pairs and peroxidase-conjugated streptavidin from PharMingen and according to Manufacturer's recommendations. […] OD450 was then measured and results expressed in pg/ml according to the standards.” for “a S.I.”

The record followed here is patent US8067529B2, “Immunogenic T-helper epitopes from human tumour antigens and immunotherapeutic methods using said epitopes” (Immatics Biotechnologies GmbH, priority 2004, dated 2011).

With `CCN(CC)CCCC(C)Nc1ccnc2cc(Cl)ccc12` (stereo not shown) [chloroquin], the “fusion protein amounts (Western blot band intensity)” value in the experiment with Ii-fusion proteins is recorded as “fusion protein amounts increase with chloroquin concentrations”.
As for “NPPSMVAAGSVVAAV (listed as Homo sapiens) [cyclin D1 peptide, immunogenic HLA-DR4-presented cyclin D1 peptide antigen]”, the “T-cell proliferation, stimulation index (S.I.)” value with T-helper cell line is reported as 5.4. In addition, the “IL-2 production of the T cells” value in the experiment with IL-2 is “produced IL-2 in response to the peptide, although to a low extent”. In the experiment with IFN-γ, the IFN-γ secretion stood at 3250 pg/mL. Besides, the IL-4 secretion result in the experiment with IL-4 was “no IL-4 or IL-6 secretion”. For the same molecule, the IL-6 secretion result in the experiment on IL-6 is given as “no IL-4 or IL-6 secretion”.
As to Phytohaemagglutinin [PHA], the “T-cell proliferation, stimulation index (S.I.)” value in the experiment with T-helper cell line is recorded as 330. In the experiment on IL-2, the “IL-2 production of the T cells” value is on record as “still sensitive to PHA stimulation”. Moreover, the IL-4 secretion result with IL-4 is listed as “highly”. Also, in the experiment with IL-6, the IL-6 secretion result is on record as “moderately”.
